Results reported in ChEMBL document CHEMBL1201862, “PubChem BioAssay data set” (2004).
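Five compound concentrations were applied to cells in 96-well plates for 48 hours; endpoints were derived by simple linear interpolation of the resulting dose-response curve. GI50 is the concentration that inhibits growth by half.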 Calls of active or inactive are those of the source. Rule as the data show it: active = GI50 up to about 1.1 µM and inactive = higher.

Columns and labels:
Experiment in all cases: growth of human tumour cells (NCI), 48 h
786-0 = test system: 786-0
A498 = test system: A498
A549 = test system: A549
ACHN = test system: ACHN
CAKI-1 = test system: CAKI-1
CCRF-CEM = test system: CCRF-CEM
COLO 205 = test system: COLO 205
DLD-1 = test system: DLD-1
DMS-114 = test system: DMS-114
DMS-273 = test system: DMS-273
EKVX = test system: EKVX
HCC 2998 = test system: HCC 2998
HCT-116 = test system: HCT-116
HCT-15 = test system: HCT-15
HL-60 = test system: HL-60
HOP-18 = test system: HOP-18
HOP-62 = test system: HOP-62
HOP-92 = test system: HOP-92
HT-29 = test system: HT-29
IGROV-1 = test system: IGROV-1
K562 = test system: K562
KM-20L2 = test system: KM-20L2
KM12 = test system: KM12
LOX IMVI = test system: LOX IMVI
LXFL 529 = test system: LXFL 529
M14 = test system: M14
M19-MEL = test system: M19-MEL
MOLT-4 = test system: MOLT-4
Malme-3M = test system: Malme-3M
NCI-H226 = test system: NCI-H226
NCI-H23 = test system: NCI-H23
NCI-H460 = test system: NCI-H460
NCI-H522 = test system: NCI-H522
OVCAR-3 = test system: OVCAR-3
OVCAR-4 = test system: OVCAR-4
OVCAR-5 = test system: OVCAR-5
OVCAR-8 = test system: OVCAR-8
RXF 393 = test system: RXF 393
RXF 631 = test system: RXF 631
SF-268 = test system: SF-268
SF-295 = test system: SF-295
SF-539 = test system: SF-539
SK-MEL-28 = test system: SK-MEL-28
SK-MEL-2 = test system: SK-MEL-2
SK-MEL-5 = test system: SK-MEL-5
SK-OV-3 = test system: SK-OV-3
SN12C = test system: SN12C
SNB-19 = test system: SNB-19
SNB-75 = test system: SNB-75
SR = test system: SR
SW-620 = test system: SW-620
TK-10 = test system: TK-10
U-251 = test system: U-251
UACC-257 = test system: UACC-257
UACC-62 = test system: UACC-62
UO-31 = test system: UO-31
XF498 = test system: XF498
RPMI-8226 = test system: RPMI-8226
SNB-78 = test system: SNB-78

With `COC(=O)C(=O)C1CCCCC(C2=NC3NN=C(N)N3C2=O)C1=O` (centres undefined) the GI50 (786-0) was > 100 µM (inactive), the GI50 (A498) was > 100 µM (inactive) and the GI50 (A549) was > 100 µM (inactive). The GI50 (ACHN) was > 100 µM (inactive), the GI50 (CAKI-1) was > 100 µM (inactive) and the GI50 (CCRF-CEM) was > 100 µM (inactive). The GI50 (COLO 205) was > 100 µM (inactive), the GI50 (DLD-1) was > 100 µM (inactive) and the GI50 (DMS-114) was > 100 µM (inactive). For the same compound, the GI50 (DMS-273) was > 100 µM (inactive), the GI50 (EKVX) was > 100 µM (inactive) and the GI50 (HCC 2998) was > 100 µM (inactive). For the same compound, the GI50 (HCT-116) was > 100 µM (inactive), the GI50 (HCT-15) was over 100 µM and the GI50 (HL-60) was > 100 µM (inactive). The GI50 (HOP-18) was > 100 µM (inactive), the GI50 (HOP-62) was > 100 µM (inactive) and the GI50 (HOP-92) was > 100 µM (inactive). For the same compound, the GI50 (HT-29) was > 100 µM (inactive), the GI50 (IGROV-1) was > 100 µM (inactive) and the GI50 (K562) was > 100 µM (inactive). For the same compound, the GI50 (KM-20L2) was > 100 µM (inactive), the GI50 (KM12) was > 100 µM (inactive) and the GI50 (LOX IMVI) was > 100 µM (inactive). For the same compound, the GI50 (LXFL 529) was > 100 µM (inactive), the GI50 (M14) was > 100 µM (inactive) and the GI50 (M19-MEL) was > 100 µM (inactive). For the same compound, the GI50 (MOLT-4) was > 100 µM (inactive), the GI50 (Malme-3M) was > 100 µM (inactive) and the GI50 (NCI-H226) was > 100 µM (inactive). The GI50 (NCI-H23) was > 100 µM (inactive), the GI50 (NCI-H460) was > 100 µM (inactive) and the GI50 (NCI-H522) was > 100 µM (inactive). For the same compound, the GI50 (OVCAR-3) was > 100 µM (inactive), the GI50 (OVCAR-4) was > 100 µM (inactive) and the GI50 (OVCAR-5) was > 100 µM (inactive). The GI50 (OVCAR-8) was > 100 µM (inactive), the GI50 (RXF 393) was 63 µM (inactive) and the GI50 (RXF 631) was > 100 µM (inactive). For the same compound, the GI50 (SF-268) was > 100 µM (inactive), the GI50 (SF-295) was > 100 µM (inactive) and the GI50 (SF-539) was > 100 µM (inactive). For the same compound, the GI50 (SK-MEL-28) was > 100 µM (inactive), the GI50 (SK-MEL-2) was > 100 µM (inactive) and the GI50 (SK-MEL-5) was > 100 µM (inactive). The GI50 (SK-OV-3) was > 100 µM (inactive), the GI50 (SN12C) was > 100 µM (inactive) and the GI50 (SNB-19) was > 100 µM (inactive). For the same compound, the GI50 (SNB-75) was > 100 µM (inactive), the GI50 (SR) was > 100 µM (inactive) and the GI50 (SW-620) was > 100 µM (inactive). For the same compound, the GI50 (TK-10) was > 100 µM (inactive), the GI50 (U-251) was > 100 µM (inactive) and the GI50 (UACC-257) was > 100 µM (inactive). For the same compound, the GI50 (UACC-62) was > 100 µM (inactive), the GI50 (UO-31) was > 100 µM (inactive) and the GI50 (XF498) was > 100 µM (inactive).

For `CCOC(=O)C1C(=O)c2ccccc2CN1Cc1ccccc1` (centres undefined), the GI50 (786-0) was > 100 µM (inactive), the GI50 (A549) was > 100 µM (inactive) and the GI50 (ACHN) was > 100 µM (inactive). For the same compound, the GI50 (CAKI-1) was > 100 µM (inactive), the GI50 (CCRF-CEM) was > 100 µM (inactive) and the GI50 (COLO 205) was > 100 µM (inactive). For the same compound, the GI50 (DLD-1) was > 100 µM (inactive), the GI50 (DMS-114) was > 100 µM (inactive) and the GI50 (DMS-273) was > 100 µM (inactive). The GI50 (EKVX) was > 100 µM (inactive), the GI50 (HCC 2998) was > 100 µM (inactive) and the GI50 (HCT-116) was > 100 µM (inactive). The GI50 (HCT-15) was over 100 µM, the GI50 (HL-60) was > 100 µM (inactive) and the GI50 (HOP-18) was > 100 µM (inactive). For the same compound, the GI50 (HOP-62) was > 100 µM (inactive), the GI50 (HOP-92) was > 100 µM (inactive) and the GI50 (HT-29) was > 100 µM (inactive). The GI50 (IGROV-1) was > 100 µM (inactive), the GI50 (K562) was > 100 µM (inactive) and the GI50 (KM-20L2) was > 100 µM (inactive). For the same compound, the GI50 (KM12) was > 100 µM (inactive), the GI50 (LOX IMVI) was > 100 µM (inactive) and the GI50 (LXFL 529) was > 100 µM (inactive). The GI50 (M14) was > 100 µM (inactive), the GI50 (M19-MEL) was > 100 µM (inactive) and the GI50 (MOLT-4) was > 100 µM (inactive). The GI50 (Malme-3M) was > 100 µM (inactive), the GI50 (NCI-H226) was > 100 µM (inactive) and the GI50 (NCI-H23) was > 100 µM (inactive). The GI50 (NCI-H460) was > 100 µM (inactive), the GI50 (NCI-H522) was > 100 µM (inactive) and the GI50 (OVCAR-3) was > 100 µM (inactive). For the same compound, the GI50 (OVCAR-4) was > 100 µM (inactive), the GI50 (OVCAR-5) was > 100 µM (inactive) and the GI50 (OVCAR-8) was > 100 µM (inactive). For the same compound, the GI50 (RPMI-8226) was > 100 µM (inactive), the GI50 (RXF 631) was > 100 µM (inactive) and the GI50 (SF-268) was > 100 µM (inactive). For the same compound, the GI50 (SF-295) was > 100 µM (inactive), the GI50 (SF-539) was > 100 µM (inactive) and the GI50 (SK-MEL-28) was > 100 µM (inactive). For the same compound, the GI50 (SK-MEL-2) was > 100 µM (inactive), the GI50 (SK-MEL-5) was > 100 µM (inactive) and the GI50 (SK-OV-3) was > 100 µM (inactive). For the same compound, the GI50 (SN12C) was > 100 µM (inactive), the GI50 (SNB-19) was > 100 µM (inactive) and the GI50 (SNB-75) was > 100 µM (inactive). The GI50 (SNB-78) was > 100 µM (inactive), the GI50 (SR) was > 100 µM (inactive) and the GI50 (SW-620) was > 100 µM (inactive). The GI50 (TK-10) was > 100 µM (inactive), the GI50 (U-251) was > 100 µM (inactive) and the GI50 (UACC-257) was > 100 µM (inactive). The GI50 (UACC-62) was > 100 µM (inactive), the GI50 (UO-31) was > 100 µM (inactive) and the GI50 (XF498) was > 100 µM (inactive).
